Structures are written as SMILES.

These results are taken from article PMC12040169 (PLOS Biology, 2025).

The nature of the series: in vitro. As to conditions: human, hela cells.

Consider `CC(OC(=O)Cc1ccccc1[N+](=O)[O-])c1nnnn1-c1ccccc1` (centres unmarked) [CBK297920], for which the viability at 28.5 h, 10 µM (% viability) was 97.6%.
As for `Nc1ncc(-c2cc3ccccc3s2)nc1-c1ccc(CCC(=O)O)cc1` [CBK064134], where the note is “% viability”, the viability at 28.5 h, 10 µM was 98.1%.
In the case of `Cc1cccc(C)c1OCc1nnc(SCc2ccc([N+](=O)[O-])cc2)n1C` [CBK269737], under “% viability”, the viability at 28.5 h, 10 µM was found to be 105%.
The same measure, in the same setting: under `Cc1ccc(C(=O)NCc2cccc(COCc3ccco3)c2)cc1F` [CBK297750] stands 83.5%; under `CCOc1ccc(NCCCCO)cc1` [CBK264386], 92%; under `O=C(O)Cc1ccc(NC(=O)C2Cc3ccccc3C(=O)O2)cc1` (centres unmarked) [CBK269406], 85.1%.
In the case of `CN(C)C(=O)OCCn1c(=O)oc2cc(Cl)ccc21` [CBK306455], the viability at 28.5 h, 10 µM is 81.9%.
For the compound `O=[N+]([O-])c1cccc(CN2CCC(N3CCN(Cc4ccccc4)CC3)CC2)c1` [CBK264609G], the viability at 28.5 h, 10 µM (% viability) is 93.5%.
Turning to `Nc1ncnc(NCCC(c2ccccc2)c2ccccc2)c1[N+](=O)[O-]` [CBK267294], the viability at 28.5 h, 10 µM (% viability) turned out to be 90.5%.
For the compound `NC(=O)C1(Cc2cccc(-c3cccs3)c2)CCN(C(=O)Cc2ccccc2)CC1` [CBK286272], under “% viability”, the viability at 28.5 h, 10 µM was found to be 84.8%.
On the same count and under the same terms, then `Cc1nn(C)c2ncc(S(=O)(=O)Nc3ccc(F)cn3)cc12` [CBK305175], with 95.1%.
The same measure, in the same setting: then `COc1cc(-c2cnc(N)c(NCC(C)(C)CO)n2)cc(OC)c1OC` [CBK063523], with 92.2%.
As to `CN1CCC(COC(=O)Nc2cccnc2)CC1` [CBK138232], the viability at 28.5 h, 10 µM (% viability) was found to be 108%.
The same measure, in the same setting: under `O=S(=O)(c1ccc(C(F)(F)F)cc1)N1CCC2(CC1)OCCO2` [CBK044520] stands 91.1%; under `COc1ccc(-n2nnnc2SCc2ccc(Cl)cc2)cc1` [CBK101068], 60.7%.
As to `COc1ccc(C2CCN(CC(=O)NC3CCCC3)CC2)cc1` [CBK283565], the viability at 28.5 h, 10 µM (% viability) is 98%.
Still for that read-out and setting: then `CCN1CCN(C(=O)Cc2cn(C)c3ccccc23)CC1` [CBK200254], with 96.9%; and `COc1ncnc(C)c1-c1cc(C)c(OC)c(C)c1` [CBK306852], with 100%; and `Cc1ccc(-c2csc(NC(=O)c3ccc(S(=O)(=O)N4CCOCC4)cc3)n2)cc1` [CBK094024], with 93.4%.
On the same count and under the same terms, under `CC(C)(CO)Cn1c(=O)[nH]c2ncc(-c3ccco3)nc21` [CBK064721] stands 98.8%; under `O=C(O)CC1c2ccccc2Oc2ccccc21` [CBK261836], 92%.
For `CS(=O)(=O)c1ccc(CN2CCC3(CCN(Cc4ccccc4)CC3)C2)cc1` [CBK144066T], the viability at 28.5 h, 10 µM (% viability) was found to be 92.2%.
Take `Fc1ccc(-c2ccc3c(c2)COC2(CCNCC2)O3)c(F)c1` [CBK060917]: under “% viability, bulk resorufin, single well”, the viability at 28.5 h, 10 µM was 96%.
Regarding `Cn1cc(Nc2nc(-c3ccc4c(c3)CCCN4S(C)(=O)=O)cs2)cn1` [CBK306236], under “% viability”, the viability at 28.5 h, 10 µM was determined as 85.7%.
In the case of `COc1ccc(CNC(=O)N2CCCCC2CO)cc1OC` (centres unmarked) [CBK155981], the viability at 28.5 h, 10 µM (% viability) was 92.8%.
Turning to `CCN1CCCN(c2ccc(-n3ccc(C)n3)nn2)CC1` [CBK306297], the viability at 28.5 h, 10 µM (% viability) was determined as 108%.
Turning to `CC(C)CNc1nnc(-c2ccccc2[N+](=O)[O-])s1` [CBK076755], the viability at 28.5 h, 10 µM (% viability) was 82.1%.
On the same count and under the same terms, then `NC(=O)N/N=C/c1ccncc1` [CBK260922], with 107%; and `CC(C)C(=O)Nc1c(-c2ccsc2)cnc2ncccc12` [CBK083714], with 88.7%; and `Cc1cc(C)n2nc(C(=O)N/N=C/c3ccc(O)cc3)nc2n1` [CBK261765], with 85.4%.
Take `Nc1ccn(C2CC(O)C(CO)O2)c(=O)n1` (centres unmarked) [CBK201203]: the viability at 28.5 h, 10 µM (% viability) is 95.4%.
Regarding `CCCC(=O)c1ccc(S(=O)(=O)N2CCCN(Cc3ccc(C#N)cc3)CC2)cc1` [CBK062895], the viability at 28.5 h, 10 µM (% viability) came out at 106%.
The same measure, in the same setting: under `Cc1nn(C)c(C)c1CC(=O)Nc1nc(C(C)(C)C)cs1` [CBK250992] stands 105%.
For `C=CCNC(=O)N[C@H]1[C@H](O)[C@@H](N(CC)CC)[C@@H]2OC[C@H]1O2` [CBK288817], for the setting “% viability”, the viability at 28.5 h, 10 µM amounted to 91.1%.
On to `O=C(c1nccs1)C1CCN(C(=O)Cc2ccc(Cl)cc2)CC1` [CBK284160], for which, under “% viability”, the viability at 28.5 h, 10 µM turned out to be 84.1%.
The same measure, in the same setting: under `CC(C)(C)c1cc(C(=O)CSc2nnc(Nc3ccccc3)n2-c2ccccc2)cc(C(C)(C)C)c1O` [CBK261033] stands 94.1%; under `CCOC(=O)C1CCCN(Cc2ccc(OC)cc2)C1` (centres unmarked) [CBK304413], 88.3%; under `CC(=O)N1CCc2nc(CC3CC3)nc(NCCn3ccnn3)c2CC1` [CBK306933], 94.7%.
Consider `CC1CCCCC1NC(=O)CSc1cccc2cccnc12` (centres unmarked) [CBK058143], for which the viability at 28.5 h, 10 µM (% viability) turned out to be 96.9%.
Turning to `O=C1Nc2ccccc2C12NN=C(c1ccccc1)S2` (centres unmarked) [CBK017221], the viability at 28.5 h, 10 µM (% viability) was determined as 100%.
The same measure, in the same setting: under `Cc1ccccc1OCCn1c(CCCO)nc2ccccc21` [CBK266182] stands 115%.
Still for that read-out and setting: under `O=C(Nc1ccc(NC(=O)c2cc(O)nc3ccccc23)cc1)c1ccccc1` [CBK269722] stands 106%; under `COc1cccc(C(=O)NCC(C)(C)SCc2ccc(F)cc2)c1` [CBK022322], 111%.
Regarding `O=C(NC(=S)Nc1cccc(-c2nc3ncccc3o2)c1)c1cc([N+](=O)[O-])ccc1N1CCOCC1` [CBK268756], under “% viability”, the viability at 28.5 h, 10 µM is 92.7%.
The same measure, in the same setting: then `O=C(CSCc1nc2ccccc2[nH]1)Nc1cccc(C(F)(F)F)c1` [CBK268474], with 101%.
Turning to `c1ccc(COCCCN2CCC3(CC2)OCCc2c3[nH]c3ccccc23)cc1` [CBK040208], the viability at 28.5 h, 10 µM (% viability) turned out to be 84.8%.
As to `Cc1cc(CN2CCN(C(=O)NCc3cccnc3)CC2)on1` [CBK305627], the viability at 28.5 h, 10 µM (% viability) is 114%.
Same read-out and setting: under `CC(C)CC(=O)NC(N=C(S)Nc1sc2c(c1C#N)CCCC2)C(Cl)(Cl)Cl` (centres unmarked) [CBK261049] stands 85.2%; under `Cc1sc2c(c1C)c(=O)nc1scc(CC(=O)NCCO)n12` [CBK266726], 96.3%; under `CC(=O)NC1CCN(CC2(c3ccc(F)cc3)CCCC2)CC1` [CBK283327], 89%.
Take `Cc1nn(CC(=O)NC2CC2)c(=O)c2cc3sccc3n12` [CBK284047]: the viability at 28.5 h, 10 µM (% viability) was 94.9%.
Same read-out and setting: then `Cc1ccc(NC(=O)c2ccc3nccnc3c2)c(C)n1` [CBK200219], with 93.6%; and `O=C(c1cc(F)cc(F)c1)N1CC[C@@H](c2ccccc2)[C@H](O)C1` [CBK283715], with 79.1%.
Turning to `O=C(Cn1cc(-c2ccc(CN3CCCCC3)cc2)nn1)NCc1ccc(Cl)cc1Cl` [CBK167689], the viability at 28.5 h, 10 µM (% viability) stood at 83.2%.
As for `O=C(CSc1nnc(-c2ccccc2O)n1-c1ccccc1)Nc1ccc(N2CCOCC2)cc1` [CBK267874], the viability at 28.5 h, 10 µM (% viability) is 103%.
The same measure, in the same setting: under `CS(=O)(=O)NC1CCCN(c2ccc3ccccc3n2)C1` (centres unmarked) [CBK306457] stands 99.7%; under `c1ccc(CN2CCN(Cc3ccccc3)C2c2ccc[nH]2)cc1` [CBK261283], 82.9%.
As for `O=C(Cn1c(=O)c2nncn2c2ncccc21)NC1CCCCCC1` [CBK288600], the viability at 28.5 h, 10 µM (% viability) turned out to be 92.3%.
The same measure, in the same setting: under `CC(CC(=O)O)n1nnc2ccccc21` (centres unmarked) [CBK264139] stands 113%; under `Oc1ccc(/C=N/N=C/c2ccc(O)c(O)c2)cc1O` [CBK261641], 95%.
On to `Cc1ccc(Nc2nc(Cn3nc(C(=O)O)c4ccccc4c3=O)cs2)cc1` [CBK296989], for which the viability at 28.5 h, 10 µM (% viability) is 86.7%.
In the case of `COc1cccc(Cn2c(C3CCNCC3)cc3cccnc32)c1` [CBK285076], for the setting “% viability”, the viability at 28.5 h, 10 µM worked out at 91.5%.
As for `Cc1oc2cc(OCC(=O)NCC(=O)O)ccc2c(=O)c1-c1ccc(Cl)cc1` [CBK286697], where the note is “% viability”, the viability at 28.5 h, 10 µM is 99.6%.
Still for that read-out and setting: then `O=C1CC[C@@H](NCc2ccco2)[C@H](c2cc(F)cc(F)c2)N1` [CBK283127], with 102%; and `Cc1nn(C)cc1C(=O)N1CCC(c2cc3c(C)cccc3cn2)CC1` [CBK282231], with 103%; and `COc1ccccc1-c1ccnc(N[C@H]2CO[C@H]3[C@@H]2OC[C@@H]3NC(=O)C2CCCCC2)n1` [CBK289529], with 94.8%.
Still for that read-out and setting: then `Cc1csc(C2CN(Cc3cn(C)c(=O)n(C)c3=O)CCO2)n1` (centres unmarked) [CBK305475], with 86.6%; and `COCCn1c(Cc2ccccc2)nnc1SCc1ccc2ccccc2c1` [CBK265985], with 96.6%; and `O=C(CN1CCN(CCCc2c[nH]c3ccc(F)cc23)CC1)N(c1ccccc1)C1CCCCC1` [CBK074710], with 92.1%.
Take `O=C(NCCN1CCCC1)C1CCCN(c2nc3c(-c4ccccc4)csc3c(=O)[nH]2)C1` (centres unmarked) [CBK215507]: the viability at 28.5 h, 10 µM (% viability) was 109%.
On to `c1ccc(CCN2CCC(Oc3cncc(OCC4COc5ccccc5O4)n3)C2)cc1` (centres unmarked) [CBK084382], for which the viability at 28.5 h, 10 µM (% viability) amounted to 93%.
Consider `O=C(Cn1cnc2ccc(F)cc2c1=O)N1Cc2ccccc2C(c2ccccc2)C1` (centres unmarked) [CBK296767], for which, where the note is “% viability”, the viability at 28.5 h, 10 µM is 95.1%.
Still for that read-out and setting: then `COc1ccc(Nc2cc(Cl)ccc2C(=O)O)cn1` [CBK022801], with 91.5%; and `COc1ccc(S(=O)(=O)Nc2ccsc2C(=O)N2CCN(C)CC2)cc1OC` [CBK004627], with 95.3%; and `N#C/C(=C\c1cn(-c2ccccc2)nc1-c1ccc(S(=O)(=O)N2CCOCC2)cc1)c1nc2ccccc2c(=O)[nH]1` [CBK266343], with 104%.
Consider `COc1cnc(-c2ccsc2)c(NC(=O)CC(C)C)n1` [CBK145292], for which the viability at 28.5 h, 10 µM (% viability) is 94%.
The same measure, in the same setting: under `O=[N+]([O-])c1ccc(N2CCN(Cc3ccccc3)CC2)cc1NCc1ccccc1` [CBK045841] stands 86.9%; under `NC(=O)CN1CC2(CCN(CC(=O)Nc3ccc(F)c(Cl)c3)CC2)c2ccccc21` [CBK126790], 99.2%.
For `NC(=O)c1cc2c(OCCCN3CCN(C(c4ccccc4)c4ccccc4)CC3)cccc2[nH]1` [CBK016544], under “% viability”, the viability at 28.5 h, 10 µM was found to be 96%.
For `CCSc1nnc(NC(=O)c2cnc(SC)nc2CC)s1` [CBK291250], for the setting “% viability”, the viability at 28.5 h, 10 µM was found to be 101%.

For orientation: viability means a read-out of living cells in per cent, often relative to untreated cells.
